# Test results taken from ChEMBL document CHEMBL1201862, “PubChem BioAssay data set” (2004).
# Where a name gives a salt, the structure may show the parent alone. The source made the active and inactive calls.
# Assays:
# [1] = target: Arf-GAP with SH3 domain, ANK repeat and PH domain-containing protein 1 (Homo sapiens, UniProt Q9ULH1); format: functional;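 further: biochemical fluorescence polarization dose–response screen measuring inhibition of ASAP1; ASAP1 GAP domain stimulating GTP hydrolysis by truncated human ARF1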
# [2] = target: Adenosylmethionine-8-amino-7-oxononanoate aminotransferase (Mycobacterium tuberculosis, UniProt P9WQ81); assay: Mycobacterium tuberculosis BioA enzyme inhibitor Measured in Biochemical System Using Plate Reader - 2163-02_Inhibitor_Dose_CherryPick_Activity.; format: functional, Mycobacterium tuberculosis UT205
# [3] = target: T1, Sentrin-specific protease 1 (Homo sapiens, UniProt Q9P0U3); assay: potency of human SENP1 inhibitors, dose response, biochemical, kinetic FRET (AID 651697); format: functional; conditions: read-out: IC50_Mean
# T1 sequence (Q9P0U3 whole entry): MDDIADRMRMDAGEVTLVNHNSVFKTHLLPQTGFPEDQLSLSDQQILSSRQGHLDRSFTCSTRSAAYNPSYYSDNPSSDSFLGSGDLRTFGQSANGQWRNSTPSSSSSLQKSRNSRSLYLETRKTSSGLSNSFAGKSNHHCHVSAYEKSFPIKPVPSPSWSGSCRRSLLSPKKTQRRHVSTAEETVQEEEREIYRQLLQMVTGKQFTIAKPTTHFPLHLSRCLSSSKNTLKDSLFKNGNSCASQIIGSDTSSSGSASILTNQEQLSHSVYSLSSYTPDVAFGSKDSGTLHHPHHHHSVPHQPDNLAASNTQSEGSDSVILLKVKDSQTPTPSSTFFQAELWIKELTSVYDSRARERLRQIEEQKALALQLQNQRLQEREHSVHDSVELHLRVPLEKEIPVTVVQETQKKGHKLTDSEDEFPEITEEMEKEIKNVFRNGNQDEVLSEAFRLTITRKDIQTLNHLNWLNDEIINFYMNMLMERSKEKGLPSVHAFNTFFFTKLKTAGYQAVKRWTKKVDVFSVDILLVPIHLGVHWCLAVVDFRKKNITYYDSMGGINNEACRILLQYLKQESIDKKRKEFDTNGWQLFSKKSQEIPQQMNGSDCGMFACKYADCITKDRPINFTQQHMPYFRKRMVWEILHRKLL
# [4] = target: T1, Sentrin-specific protease 1; assay: Dose response confirmation of small molecule inhibitors of the catalytic domain of the SUMO protease, SENP1 in a FRET assay.; format: functional; conditions: read-out: IC50_Mean
# [5] = target: T2, DNA repair and recombination protein RAD54-like (Homo sapiens, UniProt Q92698); assay: inhibitors of human RAD54 branch migration, confirmation, biochemical, fluorescence, cherry-picked samples, dose series (AID 651657); format: functional
# T2 sequence (Q92698 whole entry): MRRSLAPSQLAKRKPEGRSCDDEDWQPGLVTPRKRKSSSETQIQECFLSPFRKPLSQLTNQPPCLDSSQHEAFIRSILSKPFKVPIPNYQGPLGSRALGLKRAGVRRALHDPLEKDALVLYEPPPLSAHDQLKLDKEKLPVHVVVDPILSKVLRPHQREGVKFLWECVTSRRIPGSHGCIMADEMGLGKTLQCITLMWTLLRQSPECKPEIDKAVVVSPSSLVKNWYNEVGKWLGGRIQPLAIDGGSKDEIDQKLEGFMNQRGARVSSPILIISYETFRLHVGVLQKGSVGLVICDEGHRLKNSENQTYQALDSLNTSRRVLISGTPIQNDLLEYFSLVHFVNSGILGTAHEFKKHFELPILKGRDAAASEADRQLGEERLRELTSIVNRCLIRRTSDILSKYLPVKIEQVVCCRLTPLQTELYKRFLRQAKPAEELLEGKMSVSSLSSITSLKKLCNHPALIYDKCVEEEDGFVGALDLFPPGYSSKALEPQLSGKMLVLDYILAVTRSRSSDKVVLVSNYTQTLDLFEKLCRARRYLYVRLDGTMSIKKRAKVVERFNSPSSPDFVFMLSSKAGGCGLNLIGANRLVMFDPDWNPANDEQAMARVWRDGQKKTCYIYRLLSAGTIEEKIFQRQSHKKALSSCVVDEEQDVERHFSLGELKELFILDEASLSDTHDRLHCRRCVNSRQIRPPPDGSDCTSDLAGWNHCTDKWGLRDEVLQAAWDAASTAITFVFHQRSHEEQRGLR
# Interleukin-8 = target: T3, Interleukin-8 (Homo sapiens, UniProt P10145); assay: Dose Response confirmation of uHTS small molecule hits for cystic fibrosis induced NFkb Inhibitors in a PAF-induced IL8 counterscreen.; format: functional; conditions: read-out: IC50_Mean
# T3 sequence (P10145 whole entry): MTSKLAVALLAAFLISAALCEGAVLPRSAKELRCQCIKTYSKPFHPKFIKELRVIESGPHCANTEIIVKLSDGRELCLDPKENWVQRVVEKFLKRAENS
# [6] = target: T4, Heat shock factor protein 1 (Mus musculus, UniProt P38532); assay: inhibition of MG132-induced HSE-luciferase signal, confirmation, cell-based, NIH3T3, luminescence, dose retest (AID 2382); format: functional;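 further: NIH3T3 fibroblasts with HSF1-driven luciferase reporter stressed by proteasome inhibitor MG132; luminescence from HSF1-driven luciferase expression after 8 hours of MG132 stress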
# T4 sequence (P38532 whole entry): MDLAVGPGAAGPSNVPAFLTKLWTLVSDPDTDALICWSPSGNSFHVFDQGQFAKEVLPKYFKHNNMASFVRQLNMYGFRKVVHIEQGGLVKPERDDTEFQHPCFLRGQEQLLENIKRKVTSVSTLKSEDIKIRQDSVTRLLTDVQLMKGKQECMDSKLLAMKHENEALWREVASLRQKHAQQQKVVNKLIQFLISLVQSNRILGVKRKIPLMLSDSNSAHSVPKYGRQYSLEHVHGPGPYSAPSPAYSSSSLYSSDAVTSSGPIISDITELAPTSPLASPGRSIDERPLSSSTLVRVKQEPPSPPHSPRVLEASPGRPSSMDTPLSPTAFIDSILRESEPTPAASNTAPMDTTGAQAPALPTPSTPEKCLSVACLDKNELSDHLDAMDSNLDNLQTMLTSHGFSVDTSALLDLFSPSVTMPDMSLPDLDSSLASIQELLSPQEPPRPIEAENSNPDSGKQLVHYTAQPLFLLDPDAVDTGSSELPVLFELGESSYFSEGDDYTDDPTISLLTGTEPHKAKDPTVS
# Mu-type opioid receptor = Mu-type opioid receptor (Homo sapiens, UniProt P35372); format: functional, cell-based;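 further: U2OS cells with beta-arrestin recruitment to OPRM1 by beta-gal complementation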
# [7] = target: 5-hydroxytryptamine receptor 2A (Mus musculus, UniProt P35363); format: functional, cell-based;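 further: CHO-K1 cells with tagged receptor and beta-arrestin; agonist potency measured as compound-induced activation of the receptor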
# [8] = Fluorescence-based cell-based high throughput dose response assay for inhibitors of the interaction of nucleotide-binding oligomerization domain containing 2 (NOD2) and the receptor-interacting serine-threonine kinase 2 (RIPK2).; format: functional; conditions: Homo sapiens
# Fatty acid synthase [9] = target: T5, Fatty acid synthase (Homo sapiens, UniProt P49327); assay: FAS thioesterase domain inhibitors, dose response, biochemical, endpoint fluorescence intensity, uHTS hits (AID 624327); format: functional;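 further: fluorescence from hydrolysis of an O-methyl fluorescein acyl ester substrate by the enzyme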
# Fatty acid synthase [10] = target: T5, Fatty acid synthase; assay: FAS thioesterase domain inhibitors, dose response, biochemical, kinetic fluorescence intensity (AID 624326); format: functional;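 further: rate of fluorescence rise from hydrolysis of a fluorogenic O-methyl fluorescein ester substrate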
# [11] = system: Streptococcus sp. 'group A'; assay: growth inhibition of control SK(-) GAS strain, dose response, counter-screen for streptokinase expression inhibitor project, luminescence, kanamycin, BacTiterGlo, confirmation (AID 1900); format: functional, organism-based
# Streptokinase A = target: T6, Streptokinase A (Streptococcus pyogenes serotype M1, UniProt P10520); assay: S. pyogenes streptokinase expression inhibitors, potency, dose response, plasminogen activation absorbance, OD405 (AID 1914); format: functional, Streptococcus pyogenes M1 GAS;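 further: secreted streptokinase activity via plasminogen activation per viability signal from cell pellet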
# T6 sequence (P10520 whole entry): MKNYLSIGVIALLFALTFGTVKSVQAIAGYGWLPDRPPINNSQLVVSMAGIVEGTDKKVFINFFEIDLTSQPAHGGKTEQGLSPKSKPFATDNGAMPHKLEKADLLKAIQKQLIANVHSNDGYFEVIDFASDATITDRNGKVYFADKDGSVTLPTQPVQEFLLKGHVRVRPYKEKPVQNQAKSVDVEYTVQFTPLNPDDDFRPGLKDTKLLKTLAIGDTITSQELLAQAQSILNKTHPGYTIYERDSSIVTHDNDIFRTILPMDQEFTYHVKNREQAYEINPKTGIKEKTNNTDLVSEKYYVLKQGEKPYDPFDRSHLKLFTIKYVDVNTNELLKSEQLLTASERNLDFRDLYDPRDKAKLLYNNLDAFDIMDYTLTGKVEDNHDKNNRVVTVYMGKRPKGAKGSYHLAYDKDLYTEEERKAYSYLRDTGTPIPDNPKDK
# Streptococcus = assay: Group A Streptococcus viability loss, dose response, counter-screen for streptokinase expression inhibitor project, luminescence, BacTiterGlo (AID 1915); format: functional, organism-based;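 further: potency for reduction of bacterial viability or growth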
# [12] = Luminescence Cell-Based Dose Retest to Confirm Inhibitors of Cancer Stem Cells. [Related pubchem assays (depositor defined):AID2717, AID2721]; format: functional; conditions: Homo sapiens
# Insulin-degrading enzyme [13] = target: T7, Insulin-degrading enzyme (Homo sapiens, UniProt P14735); assay: activators of recombinant IDE enzyme, dose response, counter-screen for IDE activator project, biochemical, fluorescence polarization (AID 588681)
# T7 sequence (P14735 whole entry): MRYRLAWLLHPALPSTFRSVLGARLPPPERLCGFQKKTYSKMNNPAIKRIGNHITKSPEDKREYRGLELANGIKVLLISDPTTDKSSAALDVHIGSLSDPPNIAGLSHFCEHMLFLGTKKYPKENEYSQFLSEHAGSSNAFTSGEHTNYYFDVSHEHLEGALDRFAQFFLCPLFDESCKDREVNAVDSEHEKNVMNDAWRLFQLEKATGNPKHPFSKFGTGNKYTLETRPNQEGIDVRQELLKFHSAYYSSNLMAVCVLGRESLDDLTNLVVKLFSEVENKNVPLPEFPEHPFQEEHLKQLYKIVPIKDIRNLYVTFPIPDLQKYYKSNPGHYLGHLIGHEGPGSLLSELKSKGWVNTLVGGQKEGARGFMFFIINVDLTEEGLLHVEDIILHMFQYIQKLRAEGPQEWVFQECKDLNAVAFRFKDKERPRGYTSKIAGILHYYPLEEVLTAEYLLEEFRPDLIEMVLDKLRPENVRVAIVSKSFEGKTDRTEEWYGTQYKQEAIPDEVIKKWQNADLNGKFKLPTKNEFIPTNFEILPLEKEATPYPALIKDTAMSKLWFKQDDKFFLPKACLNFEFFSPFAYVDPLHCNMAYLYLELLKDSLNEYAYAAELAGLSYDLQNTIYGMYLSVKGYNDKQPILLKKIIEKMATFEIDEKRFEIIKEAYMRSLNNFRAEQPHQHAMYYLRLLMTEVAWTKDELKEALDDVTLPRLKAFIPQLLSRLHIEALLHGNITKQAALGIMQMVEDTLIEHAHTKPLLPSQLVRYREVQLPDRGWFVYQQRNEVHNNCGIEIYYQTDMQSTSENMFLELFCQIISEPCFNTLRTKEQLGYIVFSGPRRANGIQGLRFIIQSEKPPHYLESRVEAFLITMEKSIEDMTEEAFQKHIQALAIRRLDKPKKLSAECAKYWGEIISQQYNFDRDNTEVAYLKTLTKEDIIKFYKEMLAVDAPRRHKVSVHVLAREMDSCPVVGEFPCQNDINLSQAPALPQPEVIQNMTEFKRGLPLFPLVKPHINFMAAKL
# Insulin-degrading enzyme [14] = target: T7, Insulin-degrading enzyme; assay: activators of endogenous IDE in HEK cells, dose response, cell-based, fluorescence polarization (AID 588439); format: functional
# HEK293 [15] = assay: HEK cell cytotoxicity by LDH release, dose response, cytotoxicity control for IDE activator project, fluorescence, HEK cells (AID 588440); format: functional, cell-based; conditions: Homo sapiens;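 further: cytotoxicity by LDH release measuring loss of membrane integrity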
# HEK293 [16] = assay: optical interference in Abeta FP readout, dose response, artefact control for IDE activator project, biochemical, fluorescence polarization (AID 588442); format: functional, cell-based; conditions: Homo sapiens
# Galanin receptor type 3 = Galanin receptor type 3 (Homo sapiens, UniProt O60755); assay: Fluorescence-based cell-based primary high throughput dose response assay to identify antagonists of the Galanin Receptor 3 (GalR3).; format: functional
# cells = format: functional, cell-based; conditions: HEK-CNG
# Sequence of Adenosylmethionine-8-amino-7-oxononanoate aminotransferase (P9WQ81 whole entry): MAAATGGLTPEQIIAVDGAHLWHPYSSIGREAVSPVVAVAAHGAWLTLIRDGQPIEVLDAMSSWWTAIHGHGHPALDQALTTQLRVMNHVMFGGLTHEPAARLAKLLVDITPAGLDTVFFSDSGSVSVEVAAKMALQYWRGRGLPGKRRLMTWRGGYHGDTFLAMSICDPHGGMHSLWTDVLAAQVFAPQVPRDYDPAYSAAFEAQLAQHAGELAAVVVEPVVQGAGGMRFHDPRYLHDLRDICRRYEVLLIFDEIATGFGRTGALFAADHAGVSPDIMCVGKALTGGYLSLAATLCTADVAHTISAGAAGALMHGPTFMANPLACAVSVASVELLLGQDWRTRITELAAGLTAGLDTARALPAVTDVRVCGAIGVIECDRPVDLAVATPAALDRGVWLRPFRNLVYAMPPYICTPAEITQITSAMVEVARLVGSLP
# Sequence of Arf-GAP with SH3 domain, ANK repeat and PH domain-containing protein 1 (Q9ULH1 whole entry, the tested form may be a part): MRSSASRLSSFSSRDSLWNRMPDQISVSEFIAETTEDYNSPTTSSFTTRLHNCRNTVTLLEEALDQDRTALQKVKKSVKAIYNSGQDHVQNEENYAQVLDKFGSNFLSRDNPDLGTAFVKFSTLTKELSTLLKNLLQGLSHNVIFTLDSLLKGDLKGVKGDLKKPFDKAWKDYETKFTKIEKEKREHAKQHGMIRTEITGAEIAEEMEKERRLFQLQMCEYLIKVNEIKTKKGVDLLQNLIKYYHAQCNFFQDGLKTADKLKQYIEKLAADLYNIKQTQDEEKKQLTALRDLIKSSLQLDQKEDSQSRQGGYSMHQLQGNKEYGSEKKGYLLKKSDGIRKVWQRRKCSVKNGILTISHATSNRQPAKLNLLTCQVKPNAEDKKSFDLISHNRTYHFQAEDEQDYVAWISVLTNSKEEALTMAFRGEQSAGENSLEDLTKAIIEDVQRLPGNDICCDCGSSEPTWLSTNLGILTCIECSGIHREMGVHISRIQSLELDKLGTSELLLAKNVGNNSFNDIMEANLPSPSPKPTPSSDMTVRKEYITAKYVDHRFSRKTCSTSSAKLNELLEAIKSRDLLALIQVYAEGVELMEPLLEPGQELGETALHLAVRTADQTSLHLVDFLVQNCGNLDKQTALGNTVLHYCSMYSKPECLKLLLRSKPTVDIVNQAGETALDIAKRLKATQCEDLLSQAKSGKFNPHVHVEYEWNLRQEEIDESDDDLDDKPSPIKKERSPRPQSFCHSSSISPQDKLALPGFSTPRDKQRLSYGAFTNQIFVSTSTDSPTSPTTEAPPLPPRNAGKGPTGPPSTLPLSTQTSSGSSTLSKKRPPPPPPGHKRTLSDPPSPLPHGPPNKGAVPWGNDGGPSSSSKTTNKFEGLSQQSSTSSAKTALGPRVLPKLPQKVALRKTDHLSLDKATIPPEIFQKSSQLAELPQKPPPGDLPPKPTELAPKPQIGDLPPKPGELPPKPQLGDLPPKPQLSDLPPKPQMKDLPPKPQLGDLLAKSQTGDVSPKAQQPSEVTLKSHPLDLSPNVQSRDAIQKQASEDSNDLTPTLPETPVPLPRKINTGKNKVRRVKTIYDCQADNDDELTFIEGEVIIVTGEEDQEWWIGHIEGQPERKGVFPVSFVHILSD
# Sequence of Mu-type opioid receptor (P35372 whole entry): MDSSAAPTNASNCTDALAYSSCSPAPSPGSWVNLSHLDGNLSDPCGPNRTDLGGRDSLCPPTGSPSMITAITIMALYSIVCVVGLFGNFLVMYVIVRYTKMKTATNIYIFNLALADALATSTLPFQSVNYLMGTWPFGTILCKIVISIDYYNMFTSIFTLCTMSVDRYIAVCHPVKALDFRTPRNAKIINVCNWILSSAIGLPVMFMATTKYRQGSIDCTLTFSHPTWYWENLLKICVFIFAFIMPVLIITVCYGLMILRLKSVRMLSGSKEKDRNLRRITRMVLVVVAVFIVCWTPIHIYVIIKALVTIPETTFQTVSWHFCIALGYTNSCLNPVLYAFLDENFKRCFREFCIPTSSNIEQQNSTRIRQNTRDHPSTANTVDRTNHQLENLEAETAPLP
# T5 sequence (P49327 whole entry, the tested form may be a part): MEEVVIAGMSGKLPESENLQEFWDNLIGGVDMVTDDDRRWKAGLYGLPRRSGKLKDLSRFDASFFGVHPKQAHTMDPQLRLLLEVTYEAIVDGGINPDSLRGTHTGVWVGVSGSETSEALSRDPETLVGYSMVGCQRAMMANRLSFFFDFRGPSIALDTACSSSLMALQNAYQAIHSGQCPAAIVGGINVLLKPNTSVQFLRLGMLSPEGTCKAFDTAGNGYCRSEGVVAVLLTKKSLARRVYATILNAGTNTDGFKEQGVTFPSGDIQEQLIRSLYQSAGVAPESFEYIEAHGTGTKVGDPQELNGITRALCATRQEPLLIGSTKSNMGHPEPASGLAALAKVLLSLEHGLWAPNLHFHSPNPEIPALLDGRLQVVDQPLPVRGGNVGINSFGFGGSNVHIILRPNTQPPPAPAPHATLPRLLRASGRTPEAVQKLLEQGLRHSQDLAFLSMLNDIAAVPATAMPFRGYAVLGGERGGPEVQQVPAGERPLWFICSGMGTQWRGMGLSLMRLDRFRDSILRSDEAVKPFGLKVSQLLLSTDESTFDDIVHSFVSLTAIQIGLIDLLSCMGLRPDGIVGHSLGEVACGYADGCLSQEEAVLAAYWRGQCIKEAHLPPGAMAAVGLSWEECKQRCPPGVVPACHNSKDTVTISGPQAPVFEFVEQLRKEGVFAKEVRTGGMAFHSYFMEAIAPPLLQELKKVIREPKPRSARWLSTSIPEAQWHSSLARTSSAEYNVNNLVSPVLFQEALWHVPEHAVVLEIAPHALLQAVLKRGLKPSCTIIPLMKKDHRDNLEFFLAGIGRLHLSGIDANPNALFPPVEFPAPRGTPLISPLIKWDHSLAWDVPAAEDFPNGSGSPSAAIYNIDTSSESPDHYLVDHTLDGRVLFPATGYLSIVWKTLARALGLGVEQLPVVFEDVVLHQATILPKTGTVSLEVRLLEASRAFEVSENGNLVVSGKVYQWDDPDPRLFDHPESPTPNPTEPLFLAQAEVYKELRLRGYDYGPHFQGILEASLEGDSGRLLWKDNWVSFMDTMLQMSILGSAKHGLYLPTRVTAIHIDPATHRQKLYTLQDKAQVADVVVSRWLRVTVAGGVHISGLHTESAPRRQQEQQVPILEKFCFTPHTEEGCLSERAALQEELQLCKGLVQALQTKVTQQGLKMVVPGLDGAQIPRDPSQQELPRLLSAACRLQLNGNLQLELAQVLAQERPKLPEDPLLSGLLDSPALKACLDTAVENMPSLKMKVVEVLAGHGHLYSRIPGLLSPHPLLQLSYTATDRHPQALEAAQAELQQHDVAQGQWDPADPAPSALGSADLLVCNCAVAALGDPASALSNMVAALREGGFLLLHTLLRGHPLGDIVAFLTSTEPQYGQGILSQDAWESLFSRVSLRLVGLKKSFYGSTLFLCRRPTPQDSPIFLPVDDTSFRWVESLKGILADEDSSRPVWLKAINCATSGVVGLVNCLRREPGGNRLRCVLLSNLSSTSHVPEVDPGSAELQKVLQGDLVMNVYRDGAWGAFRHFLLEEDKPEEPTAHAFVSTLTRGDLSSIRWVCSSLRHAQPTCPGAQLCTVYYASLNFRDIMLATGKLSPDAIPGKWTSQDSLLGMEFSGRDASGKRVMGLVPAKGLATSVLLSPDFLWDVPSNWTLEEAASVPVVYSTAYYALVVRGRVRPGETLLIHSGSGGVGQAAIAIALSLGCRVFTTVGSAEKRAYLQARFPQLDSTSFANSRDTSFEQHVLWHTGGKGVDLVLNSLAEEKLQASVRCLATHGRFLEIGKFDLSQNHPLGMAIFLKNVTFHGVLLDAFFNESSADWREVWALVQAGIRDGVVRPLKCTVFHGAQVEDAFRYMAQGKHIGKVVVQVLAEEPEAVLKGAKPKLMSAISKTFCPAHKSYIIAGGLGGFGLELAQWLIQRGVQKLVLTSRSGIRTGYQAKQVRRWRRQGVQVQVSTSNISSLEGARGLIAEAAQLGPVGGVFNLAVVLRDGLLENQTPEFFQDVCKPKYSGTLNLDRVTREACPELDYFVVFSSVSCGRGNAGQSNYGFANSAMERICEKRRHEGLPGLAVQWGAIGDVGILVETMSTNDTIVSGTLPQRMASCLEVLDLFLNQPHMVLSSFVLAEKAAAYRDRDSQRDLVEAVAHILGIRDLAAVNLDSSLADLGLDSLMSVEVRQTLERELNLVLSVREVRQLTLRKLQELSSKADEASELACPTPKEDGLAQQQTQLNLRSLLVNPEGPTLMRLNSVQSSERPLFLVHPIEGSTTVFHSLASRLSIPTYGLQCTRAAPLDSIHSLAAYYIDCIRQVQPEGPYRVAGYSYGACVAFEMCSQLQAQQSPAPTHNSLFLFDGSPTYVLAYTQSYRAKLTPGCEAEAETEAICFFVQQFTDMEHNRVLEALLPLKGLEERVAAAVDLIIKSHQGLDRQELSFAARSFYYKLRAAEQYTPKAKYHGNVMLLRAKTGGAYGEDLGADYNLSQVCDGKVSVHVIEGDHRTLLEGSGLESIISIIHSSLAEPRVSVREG
# Sequence of 5-hydroxytryptamine receptor 2A (P35363 whole entry, the tested form may be a part): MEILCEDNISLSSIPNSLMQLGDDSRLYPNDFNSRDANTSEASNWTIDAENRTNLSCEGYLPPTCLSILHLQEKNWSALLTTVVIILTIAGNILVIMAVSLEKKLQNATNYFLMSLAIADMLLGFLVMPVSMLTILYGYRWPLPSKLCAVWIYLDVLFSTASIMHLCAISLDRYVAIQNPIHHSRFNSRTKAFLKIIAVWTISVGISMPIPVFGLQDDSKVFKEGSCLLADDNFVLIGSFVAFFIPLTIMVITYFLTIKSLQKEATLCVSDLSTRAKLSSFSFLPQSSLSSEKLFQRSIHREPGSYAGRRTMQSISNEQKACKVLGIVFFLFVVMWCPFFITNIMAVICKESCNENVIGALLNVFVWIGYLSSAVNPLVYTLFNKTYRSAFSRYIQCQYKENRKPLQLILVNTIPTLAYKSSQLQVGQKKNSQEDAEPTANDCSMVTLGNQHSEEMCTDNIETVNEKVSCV
smiles,measurement,setting,value
O=C(CSc1ccccc1)Nc1ccc(-c2nc3ccccc3[nH]2)cc1,IC50,[1],14.7 µM (inactive)
Cc1nc2nc(SCC(=O)N3CCOCC3)nn2c(C)c1Cc1ccccc1,AC50,[2],0.43 µM (active)
COc1cccc2c1-c1c(O)cccc1C2=O,IC50,[3],37.7 µM (inactive)
same,IC50,[4],18.6 µM (active)
same,AC50,[5],66.7 µM (active)
Cc1c(-c2ccccc2)oc2c(C(=O)N3CCN(c4ccc([N+](=O)[O-])cc4)CC3)cccc2c1=O,IC50,Interleukin-8,40.2 µM (inactive)
CN1CCN(C2=Nc3c(Cl)cc(Cl)c4cccc2c34)CC1,IC50,[3],6.95 µM (active)
same,IC50,[4],10.2 µM (active)
CN1CCc2c(sc(/N=C/c3cc(C(C)(C)C)ccc3O)c2C#N)C1,EC50,[6],> 195 µM (not active)
same,EC50,Mu-type opioid receptor,92.6 µM (inactive)
same,EC50,[7],12.9 µM (inactive)
C/C=C/c1ccc2c(c1)O[C@@H](CN(C)C(=O)Nc1ccc(OC)cc1)[C@@H](C)CN([C@@H](C)CO)S2(=O)=O,AC50,[2],2.08 µM (active)
CCOC(=O)[C@]12Cc3cc(OC)ccc3[C@H]1N(C1CCCCC1)C(=O)c1ccccc12,IC50,[8],2.5 µM (active)
same,IC50,Fatty acid synthase [9],8.86 µM (active)
same,IC50,Fatty acid synthase [10],6.5 µM (active)
O=C(N/N=C/c1cccnc1)c1cc2c(ccc3ccccc32)o1,IC50,[1],19.9 µM (inactive)
CC(C)=CCCC1(C)C=Cc2c(c(C)cc3c2[nH]c2cc(O)ccc23)O1 (stereo not drawn),EC50,[11],2.61 µM (active)
same,EC50,Streptokinase A,> 150 µM (not active)
same,EC50,Streptococcus,5.07 µM (active)
same,AC50,[12],5.38 µM (active)
same,EC50,Insulin-degrading enzyme [13],> 54.7 µM (inactive)
same,EC50,Insulin-degrading enzyme [14],41 µM (inactive)
same,IC50,HEK293 [15],15.3 µM (inactive)
same,EC50,HEK293 [16],> 55.9 µM (inactive)
COc1c2c(cc3c1OCO3)CCN(C)C2 [HYDROCOTARNINE HYDROBROMIDE],EC50,Mu-type opioid receptor,92.4 µM (inactive)
same,EC50,[7],76 µM (inactive)
OCc1cc(C(O)CNCCCCCCOCCCCc2ccccc2)ccc1O (stereo not drawn) [SALMETEROL XINAFOATE],IC50,Galanin receptor type 3,> 29.9 µM (inactive)
same,EC50,cells,> 29.9 µM (inactive)
